According to patent publication EP1285919A1, “C10 Carbonate substituted taxanes as antitumor agents” (Florida State University Research Foundation, Inc., priority 2001, dated 2003):
Like-named read-outs stand apart in the source and are kept apart here.

Key:
HCT116 = experiment: In vitro cytotoxicity, cell colony formation assay; format: cell-based; details: read-out: IN VITRO ID 50
Description: In Vitro cytotoxicity measured by the cell colony formation assay
Four hundred cells (HCT116) were plated in 60 mm Petri dishes containing 2.7 mL of medium (modified McCoy's 5a medium containing 10% fetal bovine serum and 100 units/mL penicillin and […] streptomycin). The cells were incubated in a CO2 incubator at 37 °C for 5 h for attachment to the bottom of Petri dishes. The compounds identified in Example 2 were made up fresh in medium at ten times the final concentration, and then 0.3 mL of this stock solution was added to the 2.7 mL of medium in the dish. The cells were then incubated with drugs for 72 h at 37 ° C. At the end of incubation the drug-containing media were decanted, the dishes were rinsed with 4 mL of Hank's Balance Salt Solution (HBSS), 5 mL of fresh medium was added, and the dishes were returned to the incubator for colony formation. The cell colonies were counted using a colony counter after incubation for 7 days.

[1] = tested on: A375 Human Melanoma Xenografts; experiment: In vivo evaluation against A375 melanoma xenografts
Description: In Vivo Evaluation of Antitumor Compounds Against A375 Human Melanoma Xenografts
Antitumor compounds were prepared in a vehicle of 5% ethanol, 5% Cremophor and 90% isotonic saline in the manner as described for Solution 1 of Example 10. Taxol (paclitaxel; Bristol Meyers Squibb) and Taxotere (docetaxel; Rhône-Poulenc Rorer) were obtained as the marketed pharmaceutical drugs. The dosing volume was 0.3 ml per 20 g mouse.
Female NCr-nude mice were implanted subcutaneously with 1 mm^3 A375 melanoma fragments in the flank were sorted into treatment groups of six mice each, except the Taxotere treatment group which was a group of seven mice. […] Dosing was initiated on Day 1. The antitumor compounds were given i.v. at an estimated maximum tolerated dose (MTD) appropriate for each agent on a qd x 1 schedule (single administration of compound). The i.v. taxol was given on the qd x 1 schedule as two split doses (one hour between) of 12 mg/kg per split dose (total dose = 24 mg/kg). Taxol was also administered i.p. on a qd x 5 schedule at a daily dose of 18 mg/kg. Taxotere was given i.v. on a qd x 1 schedule at a dose of 70 mg/kg. The vehicle was administered i.v. to control mice in Group 1 on the qd x 1 schedule. The study was terminated on Day 60. Treatment groups are detailed in Table 7.
The results are summarized in Table 8 and include mean days of survival (MDS), number of toxic deaths, number of survivors, number of complete or partial responses, and number with stable disease. The mean days of survival is the number of days after which a neoplasm reached a size of 2.0 g and the animal was euthanized. A complete response is obtained […].

SK-MES carcinoma = tested on: SK-MES carcinoma
Description: In Vivo Evaluation of Antitumor Compounds Against Human Lung Carcinoma Xenografts
The compounds were prepared in the manner as described for Solution 2 of Example 10. Taxol (paclitaxel, Bristol Meyers Squibb), used as a control, was obtained as the marketed pharmaceutical drug.
Taxol itself was given as a split i.v. dose of 36 mg/kg, with the two 18 mg/kg doses separated by one hour. Vehicle control animals were dosed twice intravenously with half the total volume being given separated by one hour. The study was terminated on Day 60.
(§1) The results are summarized in Table 1 and include mean days of survival (MDS), number of toxic deaths, number of survivors, number of complete or partial responses, and number with stable disease. The mean days of survival is the number of days after which a SKMES neoplasm reached a size of 1.5 g and the animal was euthanized. A complete response is obtained if the tumor is not palpable at the end of the study. A partial response is obtained if the tumor shrinks to a size smaller than its size on Day 1 of the study.
A tumor scoring system was designed to provide a more quantitative ranking of efficacy (therapeutic potential) among the antitumor agents evaluated against the different human solid tumor xenografts. Each mouse in a study was given a score of from 1 to 10 at the end of the study. The scores can be summarized as follows:
The individual score for each mouse was averaged into a mean score for each treatment group. […]

[2] = tested on: SKMES Human Lung Carcinoma Xenograft; details: Group 3: 40 mg/kg single oral bolus Day 1, 6 mice, study to Day 60
Description: The compound was administered as a single bolus by the oral route in a study to investigate the efficacy of this compound against the SKMES human lung cancer xenograft.
Female Nu/Nu mice (6-8 weeks of age; implanted with 1 mm^3 SKMES lung carcinoma fragments in the flank) were sorted into four treatment groups of six mice each. SKMES size ranges and group mean SKMES size ranges were 126-448 mg and 238-241 mg, respectively. […] Treatments were administered as a single oral bolus on Day 1, and the study was terminated on Day 60.
as §1, with “Table 13” for “Table 1”, “of 2.0” for “of 1.5”
The total response rate was 100% with four complete responses and two partial responses. The total response rate is defined as the percentage of evaluable animals (excluding deaths due to procedure or toxicity) in a group that experience complete or partial responses at the termination of the study.

[3] = Group 4: 72.6 mg/kg i.p. qd x 1, 6 mice, study to Day 60
[4] = Group 2: 24 mg/kg i.v. qd x 1 (two split doses of 12 mg/kg), 6 mice, study to Day 60
[5] = Group 3: 18 mg/kg i.p. qd x 5, 6 mice, study to Day 60

With `CCOC(=O)O[C@H]1C(=O)[C@@]2(C)[C@H]([C@H](OC(=O)c3ccccc3)[C@]3(O)C[C@H](OC(=O)[C@H](O)[C@H](C=C(C)C)NC(=O)OC(C)(C)C)C(C)=C1C3(C)C)[C@]1(OC(C)=O)CO[C@@H]1C[C@@H]2O` [Compound 1781] the IC50 (HCT116; HCT116, 72 h with drug, colonies counted after 7 days, concentration producing 50% inhibition of colony formation) was < 1 nM, the Toxic Deaths ([1]; 1781 i.v. qd x 1 at estimated MTD, six mice) was “five” and the “Complete Response” value [1, 3] was 0. For the same molecule, the “Mean Score” value [1, 3] was 0.5 ± 0.5, the “Partial Response” value [1, 3] was 0 and the “Stable Disease” value [1, 3] was 0. For the same molecule, the Survivors [1, 3] was 0, the “Toxic Deaths” value [1, 3] was 5 and the “mean group weight losses” value ([1]; mouse, in vivo, iv) was 20-30%.

For `CC(=O)O[C@H]1C(=O)[C@@]2(C)[C@H]([C@H](OC(=O)c3ccccc3)[C@]3(O)C[C@H](OC(=O)[C@H](O)[C@@H](NC(=O)c4ccccc4)c4ccccc4)C(C)=C1C3(C)C)[C@]1(OC(C)=O)CO[C@@H]1C[C@@H]2O` [Taxol], the IC50 (HCT116; Homo sapiens, HCT-116) was 2.1 nM, the “survival extension compared to vehicle controls” value (SK-MES carcinoma; Taxol 36 mg/kg i.v.) was 30% and the “MDS (n)” value (SK-MES carcinoma; mean days of survival until tumor 1.5 g, i.v. split dose qd x 1, Taxol 36 mg/kg, 1755 49 mg/kg, six mice per group) was 16 ± 2.0 (6) days. The “Toxic Deaths” value (SK-MES carcinoma; number of mice of six, i.v. split dose qd x 1, Taxol 36 mg/kg, 1755 49 mg/kg) was 0, the Survivors (SK-MES carcinoma; number of mice of six, study ended Day 60) was 0 and the “Stable Disease” value (SK-MES carcinoma; number of mice of six, tumor below 1.5 g at end of study) was 0. The “Complete Response” value (SK-MES carcinoma; number of mice of six, tumor not palpable at end of study) was 0, the “Partial Response” value (SK-MES carcinoma; number of mice of six, tumor smaller than on Day 1) was 0 and the “Mean Score” value (SK-MES carcinoma; tumor score 1 to 10 per mouse, averaged per group (10 = complete response)) was 1.3 ± 0.3. The “MDS (n)” value ([1]; Group 2: 24 mg/kg i.v. qd x 1 (two split doses of 12 mg/kg), 6 mice, n=4, 2.0 g endpoint, study to Day 60) was 18.1 ± 0.6 (4) days, the “Complete Response” value [1, 4] was 0 and the “Mean Score” value [1, 4] was 0.8 ± 0.3. For the same molecule, the “Partial Response” value [1, 4] was 0, the “Stable Disease” value [1, 4] was 0 and the Survivors [1, 4] was 0. The “Toxic Deaths” value [1, 4] was 2, the “Complete Response” value [1, 5] was 0 and the “Mean Score” value [1, 5] was 0 ± 0. For the same molecule, the “Partial Response” value [1, 5] was 0, the “Stable Disease” value [1, 5] was 0 and the Survivors [1, 5] was 0. For the same molecule, the “Toxic Deaths” value [1, 5] was 6, the “animals died of toxicity” value ([1]; Taxol 18 mg/kg i.p. qd x 5, six mice) was “six” and the “survival extension compared to Group 1 controls” value ([1]; i.v. qd x 1, Taxol 24 mg/kg, Taxotere 70 mg/kg) was 26%. The MDS ([1]; i.v. qd x 1, Taxol 24 mg/kg, Taxotere 70 mg/kg, 2.0 g cut-off) was 18.1 days, the “MDS (n)” value ([2]; n=6, 2.0 g endpoint) was 13.2 ± 1.4(6) days and the “% Total Response” value [2] was 0%. The “Complete Response” value [2] was 0, the “Partial Response” value [2] was 0 and the “Stable Disease” value [2] was 0. The Survivors [2] was 0 and the “Toxic Deaths” value [2] was 0.
